Key:
Test in all cases: relative viability (nuclei count vs DMSO), 5 days (fraction); higher = more cells survive
Obatoclax + Decitabine = compound: COC1=CC(c2cc3ccccc3[nH]2)=N/C1=C\c1[nH]c(C)cc1C [Obatoclax] + Nc1ncn([C@H]2C[C@H](O)[C@@H](CO)O2)c(=O)n1 [Decitabine] (partner 2 µM)
In short: (§1)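 Lung cancer cell lines were seeded in 1536-well plates and dosed by pin tool the next day, with either a single drug or a fixed anchor-drug dose combined with five library-drug doses (not always all listed) spaced in √10 steps. Five days later, one step fixed the cells and stained their nuclei (final 0.05% Triton X-100, 1% formaldehyde, 1 ug/ml Hoechst), and nuclei were counted on 4× images. Relative viability is the nuclei count in treated wells divided by the count in vehicle wells, and each value is the median of duplicate plates.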

Bortezomib + AZD7762 = compound: CC(C)C[C@H](NC(=O)[C@H](Cc1ccccc1)NC(=O)c1cnccn1)B(O)O [Bortezomib] + NC(=O)Nc1cc(-c2cccc(F)c2)sc1C(=O)N[C@H]1CCCNC1 [AZD7762] (partner 0.2 µM)
In short: as §1

[1] = compound: CC1=CC(=NN1)NC2=CC(=NC(=N2)/C=C/C3=CC=CC=C3)N4CCN(CC4)C + CC1(C)CCC(c2ccc(Cl)cc2)=C(CN2CCN(c3ccc(C(=O)NS(=O)(=O)c4ccc(N[C@H](CCN5CCOCC5)CSc5ccccc5)c(S(=O)(=O)C(F)(F)F)c4)cc3)CC2)C1 [Navitoclax] (partner 0.5 µM)
In short: as §1

[2] = compound: CC1=CC(=NN1)NC2=CC(=NC(=N2)/C=C/C3=CC=CC=C3)N4CCN(CC4)C + COc1cc2c(Oc3ccc(NC(=O)C4(C(=O)Nc5ccc(F)cc5)CC4)cc3F)ccnc2cc1OCCCN1CCOCC1 [Foretinib] (partner 0.25 µM)
In short: as §1

Row | Cell Line | relative viability (Obatoclax + Decitabine; first compound 0.01 µM) | relative viability (Obatoclax + Decitabine; first compound 0.03162 µM) | relative viability (Obatoclax + Decitabine; first compound 0.1 µM) | relative viability (Obatoclax + Decitabine; first compound 0.3162 µM) | relative viability (Obatoclax + Decitabine; first compound 1 µM) | relative viability (Bortezomib + AZD7762; first compound 0.0002 µM) | relative viability (Bortezomib + AZD7762; first compound 0.000632 µM) | relative viability (Bortezomib + AZD7762; first compound 0.002 µM) | relative viability (Bortezomib + AZD7762; first compound 0.006325 µM) | relative viability (Bortezomib + AZD7762; first compound 0.02 µM) | relative viability ([1]; first compound 0.08 µM) | relative viability ([1]; first compound 0.253 µM) | relative viability ([1]; first compound 0.8 µM) | relative viability ([1]; first compound 2.53 µM) | relative viability ([1]; first compound 8 µM) | relative viability ([2]; first compound 0.08 µM) | relative viability ([2]; first compound 0.253 µM) | relative viability ([2]; first compound 0.8 µM) | relative viability ([2]; first compound 2.53 µM) | relative viability ([2]; first compound 8 µM)
1 | HCC-78 | 0.617 | 0.511 | 0.706 | 0.616 | 0.699 | 0.591 | 0.603 | 0.453 | 0.616 | 0.238 | 0.799 | 0.918 | 0.823 | 0.568 | 0.126 | 0.582 | 0.666 | 0.54 | 0.492 | 0.233
2 | HCC-366 | 0.318 | 0.271 | 0.306 | 0.347 | 0.274 | 0.221 | 0.331 | 0.401 | 0.37 | 0.0238 | 1.07 | 1.19 | 0.989 | 0.371 | 0.0097 | 0.942 | 1.04 | 0.472 | 0.0589 | 0.0265
3 | IA-LM |  |  |  |  |  |  |  |  |  |  | 0.733 | 0.76 | 1.12 | 0.669 | 0.148 | 1.07 | 1.05 | 0.906 | 0.601 | 0.103
4 | LCLC-103H | 0.7 | 0.728 | 0.784 | 0.763 | 0.738 | 0.816 | 0.769 | 0.764 | 0.748 | 0.201 |  |  |  |  |  | 0.76 | 0.93 | 0.639 | 0.305 | 0.154
5 | NCI-H358 | 0.213 | 0.187 | 0.232 | 0.157 | 0.137 | 0.615 | 0.285 | 0.619 | 0.241 | 0.225 |  |  |  |  |  | 0.705 | 0.886 | 0.307 | 0.145 | 0.0554
6 | NCI-H520 | 0.441 | 0.309 | 0.631 | 0.507 | 0.292 |  |  |  |  |  | 0.985 | 1.12 | 0.889 | 0.198 | 0.127 | 0.669 | 0.843 | 0.788 | 0.534 | 0.185
7 | NCI-H522 | 0.708 | 0.642 | 0.607 | 0.747 | 0.608 | 0.794 | 0.719 | 0.715 | 0.384 | 0.356 |  |  |  |  |  |  |  |  |  | 
8 | NCI-H661 | 0.539 | 0.532 | 0.594 | 0.558 | 0.489 |  |  |  |  |  |  |  |  |  |  | 0.997 |  | 1.01 | 0.576 | 0.362
9 | NCI-H1299 |  |  |  |  |  |  |  |  |  |  | 1.04 | 1.13 | 1.03 | 0.863 | 0.243 | 1.04 | 1.06 | 1.1 | 0.4 | 0.186
10 | NCI-H1563 |  |  |  |  |  |  |  |  |  |  |  |  |  |  |  | 0.903 | 0.923 | 0.87 | 0.746 | 0.565
11 | NCI-H1623 |  |  |  |  |  |  |  |  |  |  |  |  |  |  |  | 0.817 | 0.94 | 0.886 | 0.803 | 0.533
12 | NCI-H1648 | 0.594 | 0.421 | 0.829 | 0.447 | 0.39 | 0.549 | 0.634 | 0.771 | 0.518 | 0.269 |  |  |  |  |  |  |  |  |  | 
13 | NCI-H1650 | 0.457 | 0.352 | 0.47 | 0.268 | 0.267 |  |  |  |  |  | 1.28 | 1.43 | 0.902 | 0.358 | 0.107 | 1.07 | 1.4 | 1.33 | 0.153 | 0.133
14 | NCI-H1703 |  |  |  |  |  | 0.117 | 0.102 | 0.133 | 0.178 | 0.137 | 0.929 | 0.965 | 0.283 | 0.134 | 0.108 | 0.331 | 0.362 | 0.291 | 0.209 | 0.211
15 | NCI-H1792 | 0.58 | 0.469 | 0.537 | 0.427 | 0.581 | 0.657 | 0.693 | 0.602 | 0.344 | 0.0353 | 0.558 | 0.599 | 0.611 | 0.437 | 0.102 |  |  |  |  | 
16 | NCI-H2009 | 0.371 | 0.384 | 0.358 | 0.305 | 0.213 |  |  |  |  |  | 1.19 | 1.09 | 1.13 | 1.12 | 0.212 | 1.22 | 1.22 | 1.23 | 0.493 | 0.217
17 | NCI-H2023 | 0.216 | 0.203 | 0.222 | 0.159 | 0.0785 |  |  |  |  |  | 0.952 | 1.09 | 0.874 | 0.387 | 0.069 | 0.719 | 0.974 | 0.832 | 0.362 | 0.0501
18 | NCI-H2228 |  |  |  |  |  |  |  |  |  |  | 1.11 | 0.893 | 0.747 | 0.0829 | 0.0768 | 0.692 | 0.953 | 0.618 | 0.102 | 0.0419
19 | NCI-H2342 | 0.724 | 0.782 | 0.758 | 0.732 | 0.812 | 0.64 | 0.486 | 0.478 | 0.582 | 0.433 |  |  |  |  |  | 0.918 | 1.06 | 1.14 | 1.01 | 0.578
20 | SK-LU-1 | 0.682 | 0.567 | 0.454 | 0.478 | 0.363 |  |  |  |  |  | 0.792 | 0.905 | 0.786 | 0.385 | 0.0813 | 0.756 | 0.821 | 0.671 | 0.177 | 0.0847
21 | SK-MES-1 | 0.366 | 0.374 | 0.468 | 0.233 | 0.202 |  |  |  |  |  | 1.11 | 1.21 | 1.15 | 0.479 | 0.116 | 0.896 | 0.858 | 0.864 | 0.653 | 0.352
22 | SW 900 | 0.438 | 0.426 | 0.364 | 0.402 | 0.382 | 0.572 | 0.627 | 0.188 | 0.178 | 0.158 |  |  |  |  |  | 0.845 | 0.831 | 0.871 | 0.605 | 0.118
23 | SW 1573 | 0.432 | 0.434 | 0.437 | 0.139 | 0.194 |  |  |  |  |  | 0.98 | 1.06 | 0.772 | 0.227 | 0.0461 | 0.847 | 0.993 | 1.1 | 0.536 | 0.151
24 | UMC-11 | 0.608 | 0.536 | 0.475 | 0.573 | 0.41 |  |  |  |  |  | 0.317 | 0.312 | 0.177 | 0.116 | 0.0909 | 1.06 | 0.908 | 0.466 | 0.17 | 0.13

From the supplement of paper PMC10307832
